According to PubChem BioAssay AID2305 (GlaxoSmithKline (GSK), 2010):
pIC50: −log10 of the molar value. Where “and” joins values, the source holds several entries; their conditions need not be identical. Equal values may be shown once.

What follows are compounds tested on P. falciparum 3D7 growth, pLDH absorbance (assay: blood-stage malaria parasite growth potency – strain 3D7, dose response (AID 2305)).

Compound | pIC50
CCNC(=O)Nc1cccc(-c2cccc(-c3nc4ccc(C(F)(F)F)cc4[nH]3)c2)c1 | 6.17
CC[C@H]1CN2CC[C@H]1C[C@H]2[C@H](OC(=O)c1ccccc1)c1cc(C#N)nc2ccc(OC)cc12 | 6.04
COc1ccc(NC(=O)[C@H](C)Nc2cc(C)nc(NCC3CCCCC3)n2)cc1 | 5.89
Cc1cc(=O)c(-c2ccc(Oc3cccc(C(F)(F)F)c3)cc2)c(C)[nH]1 | 6.20 and 6.68
CCNC[C@@H](O)[C@H](Cc1ccccc1)NC(=O)c1cc2c3c(c1)c(CC)cn3CCS(=O)(=O)N2C | 6.09
Nc1c2c(nc3ccccc13)C(=Cc1ccc(O)cc1)CCC2 | 6.74
COc1cc2nc(NCCn3cccn3)nc(NCCc3ccccc3)c2cc1OC | 6.55
Cc1cc(N2CCCCC2)nc2ccc(NC(=O)c3cncc(Br)c3)cc12 | 6.14
CCc1ccc(CN2CCCCC(NC(=O)c3cc(-c4ccccc4F)cs3)C2)cc1 (centres undefined) | 5.94
COCCNCc1ccc(-c2cccc(CNc3ccc(OC)cc3)c2)cc1 | 5.98
c1cc(CN2CCN(CCN3CCOCC3)CC2)cc(-c2cccc(-c3nc4ccccc4[nH]3)c2)c1 | 6.62
COc1cccc(C2(C)CCN(CCCCNC(=O)c3ccc(NC(=O)c4ccc(Cl)cc4)cc3)CC2)c1 | 6.08
COc1cc2c(c(Cl)c1OC)CCN(Cc1ccccc1)CC2c1ccc(NC(=O)C(F)(F)F)cc1 (centres undefined) | 6.04
CCCc1ccc2c(c1O)CCC(N(CCC)CCC)C2 (centres undefined) | 6.05
O=S(=O)(Nc1ccc(CCN2CCCCC2CCN2CCCC2)cc1)c1cccc2cccnc12 (centres undefined) | 5.89
c1ccc(Oc2ccc(Nc3ccnc(Nc4cccc(CNCCCN5CCOCC5)c4)n3)cc2)cc1 | 5.98
Cn1c(Nc2cc(C(C)(C)C)on2)nc2cc(Nc3ccnc(Nc4cccc(S(=O)(=O)N5CCOCC5)c4)n3)ccc21 | 6.28
Cc1ccc(CN2CCCN(Cc3cccc(NC(=O)c4ccc(-c5ccccc5)cc4)c3)CC2)cc1C | 5.90
Cc1cc(NN=Cc2ccccc2[N+](=O)[O-])c2ccccc2n1 | 6.11
S=C(Nc1ccccc1Cl)NC1CCC(CN2CCC(c3c[nH]c4ccccc34)CC2)CC1 (centres undefined) | 5.98
CCNc1cc(CCCC(=O)OCC)nc(Nc2ccc(C)cc2)n1 | 6.11
Cc1[nH]c(C)c(-c2ccc(CCc3ccc(C(F)(F)F)cc3)nc2)c(=O)c1Cl | 7.05
Cc1ccc(Cn2cnc3cc(C(=O)Nc4ccc(-c5ccc(CN(C)C)cc5)cc4)ccc3c2=O)o1 | 5.90
CC(C)CCN1CCC(Oc2ccc(NC(=O)c3ccccc3)cc2Cl)CC1 | 5.89
CCN(CC)CCN(Cc1ccc(-c2ccc(Cl)cc2)cc1)C(=O)Cn1c(CCc2cccc(F)c2F)nc(=O)c2ccccc21 | 6.11

Compound | pIC50
Cc1nc(N)nc(N)c1OCCCCOc1ccccc1 | 7.30
O=C(Nc1cccc(-c2nn3ccccc3c2-c2ccnc(Nc3cccc(F)c3)n2)c1)c1c(F)ccc(F)c1F | 6.07
O=C(c1cc(OC(F)(F)F)ccc1O)N1CCN(c2ccccc2)CC1 | 5.98
NCCCOc1cnc(-c2ccccc2)c2nc(-c3nonc3N)n(CCc3ccccc3)c12 | 5.90
Cc1cc(C2CCCCN2C)ccc1-c1ccc(C(=O)N2CCc3cc4c(cc32)C2(CCN(C)CC2)CO4)cc1 (centres undefined) | 6.10
COc1ccc2c(c1)nc(CN=C(N)N)n2Cc1ccc(Cl)cc1 | 6.44
O=C(c1cc(C(=O)Nc2ccc(F)cc2)c(=O)n(-c2ccc(F)cc2)c1)c1cc(Cl)ccc1O | 6.66
Cc1ccccc1N1CCN(c2ccc(C(=O)Nc3ccccc3)cc2)CC1 | 6.14
CC(=O)C1(c2ccccc2)CCN(CCC2(c3ccc(Cl)c(Cl)c3)CN(C(=O)CC(C)C)CCO2)CC1 (centres undefined) | 6.19
CC(C)CNCc1cccc(-c2cccc(CNC3CCN(Cc4ccccc4)CC3)c2)c1 | 6.74
N/C(=N/C(=NCCCCCCN=C(/N=C(/N)Nc1ccc(Cl)cc1)N1CCOCC1)N1CCOCC1)Nc1ccc(Cl)cc1 | 6.15
CCOc1cc(C(=O)N[C@@H](Cc2ccccc2)[C@H](O)CNCc2cccc(OC)c2)cc(N2CCCCS2(=O)=O)c1 | 6.14
COc1cc(C(=O)NCc2nn(CCN3CCC(N4CCCC4)CC3)cc2-c2ccc(Cl)c(Cl)c2)cc(OC)c1OC | 6.11
CSc1ccc(CN2CCC(CNC(=O)c3cc(-c4ccccc4F)cs3)C2)cc1 (centres undefined) | 5.94
CC(CN(C)C)C(=O)Nc1ccc(-c2ccc(-c3nc4ccccc4[nH]3)cc2)cc1 (centres undefined) | 6.13
CCc1cn2c3c(cc(C(=O)N[C@@H](Cc4ccccc4)[C@H](O)CNC4CCOCC4)cc13)N(C(C)C)S(=O)(=O)CC2 | 7.10
Cc1[nH]c(C)c(-c2ccc(S(=O)(=O)c3ccc(Cl)cc3)cc2)c(=O)c1Cl | 6.85
CC[C@H]1CN2CC[C@@H]1C[C@H]2[C@H](O)c1cc(N2CCC(C(N)=O)CC2)nc2ccc(OC)cc12 | 6.11
CCCN1CCC=C(c2cccc(Nc3nccc(Nc4cc(OC)ccc4C)n3)c2)C1 | 5.98
COCCNC(=O)c1ccc(OC2CCN(Cc3ccc(F)c(F)c3)CC2)c(Cl)c1 | 5.83
Cc1cc(N[C@@H](CC(C)C)C(=O)NCc2cccc(F)c2)nc(NCC2CCCCC2)n1 | 6.08
Cc1[nH]c2ccccc2c1C1=CCN(CCCCC23CCCc4cccc(c42)NC3=O)CC1 (centres undefined) | 6.64
CCCc1cc(Cc2cnc(N)nc2N)cc(CCC)c1OCCCCCC(=O)OCC | 7.30
COc1ccc2nccc(N3CCC(O)(CCNCc4ccc5c(n4)NC(=O)CS5)CC3)c2n1 | 6.19
